Columns and labels:
[1] = target: T1, BACE1 (Homo sapiens, UniProt P56817); test: Cellular Aβ-lowering assay (Abeta 40 AlphaLISA, HEK293 APP cells); assay type: cell-based; conditions: 18-20 hrs incubation, Aβ40 in culture supernatant, read-out: BACE1 cell act. Aβ40 IC50
T1 construct: endogenous in cells; host or cells: HEK293 APP cells (HEK293 expressing APP)
Experimental: Cellular Aβ-lowering Assay:
The Abeta 40 AlphaLISA Assay can be used. The HEK293 APP cells were seeded in 96 well Microtiter plates in cell culture medium (Iscove's, plus 10% (v/v) fetal bovine serum, penicillin/streptomycin) to about 80% confluency and the compounds were added at a 3× concentration in ⅓ volume of culture medium (final DMSO concentration was kept at 1% v/v). After 18-20 hrs incubation at 37° C. and 5% CO2 in a humidified incubator, the culture supernatants were harvested for the determination of Aβ40 concentrations using Perkin-Elmer Human Amyloid beta 1-40 (high specificity) Kit (Cat# AL275C).
In a Perkin-Elmer White Optiplate-384 (Cat# 6007290), 2 ul culture supernatants were combined with 2 μl of a 10× AlphaLISA Anti-hAβAcceptor beads+Biotinylated Antibody Anti-Aβ1-40 Mix (50 μg/mL/5 nM). After 1 hour room temperature incubation, 16 μl of a 1.25 × preparation of Streptavidin (SA) Donor beads (25 μg/mL) were added and incubated for 30 minutes in the Dark. Light Emission at 615 nm was then recorded using EnVision-Alpha Reader. Levels of Aβ 40 in the culture supernatants were calculated as percentage of maximum signal (cells treated with 1% DMSO without inhibitor). The IC50 values were calculated using the Excel XLfit software.

[2] = tested on: Aβ40 in brain of wild-type mice; test: Lowering of Aβ40 in brain of wild-type mice; assay type: in vivo, mouse; conditions: female C57Bl/6J mice, 30 mg/kg per os, 4 h after dose, brain Aβ40 as percentage of the vehicle group
Experimental: Lowering of Aβ40 in Brain of Wild-Type Mice:
Animals and Housing Conditions. Animals were maintained in a 12/12 h light/dark cycle, with lights starting at 6 a.m., and experiments were conducted during the light phase. Animal housing and experimental procedures were in line with ethical and legal guidelines and were authorized by local veterinary authorities.
Experiment. Female C57B1/6J mice were treated with a dose of 30 mg/kg of the compounds, 3-4animals per treatment group. The test compound was dissolved in 5% EtOH, 10% Solutol, and was applied per os at 10 mL/kg. After 4 h, the animals were sacrificed and brain and plasma were collected. The brain was cut into halves and immediately frozen on dry ice. Brain was used for measurement of Aβ40 and plasma was used for determination of compound exposure. […] Brain tissue was homogenized in 2% DEA buffer in a Roche MagnaLyser (20″, 4000 rpm) and subsequently centrifuged for 1 h at 100000 g. DEA was reduced to 0.2% in 50 mM NaCl and one-half of the DEA lysate was passed over an Oasis Solid phase extraction plate (Waters; cat. no. 186000679), which had been activated with MeOH and equilibrated in dH2O (1 mL each). After washes in 10% and 30% MeOH (1 mL each), the Aβ-peptides were eluted in 0.8 mL of 2% NH4OH in 90% MeOH. The eluate was dried over a N2 flow, and the dried sample was reconstituted in 30 μL of AlphaLISA assay buffer. Aβ40 was determined by an AlphaLISA assay (Perkin-Elmer). In a white 96-well, half area microplate (Perkin-Elmer cat. no. 6005561), 20 μL of the reconstituted sample were mixed with 5 μL of biotinylated BAP-24 (specific for C-terminus of Aβ40) (Brockhaus, M.; Grunberg, J.; Rohrig, S.; Loetscher, H.; Wittenburg, N.; Baumeister, R.; Jacobsen, H.; Haass, C. Caspasemediated cleavage is not required for the activity of presenilins in amyloidogenesis and NOTCH signaling. NeuroReport 1998, 9, 1481-1486.) stock=4.4 mg/mL, f.c.5.5 μg/mL), and 5 μL 252Q6 acceptor beads (252Q6 antibody, Invitrogen AMB0062) had been previously conjugated with AlphaLISA Acceptor beads (Perkin-Elmer cat. no. 6772002); final dilution 1:500). The mix was incubated for 1 h at RT in the dark. Then 20 μL of Streptavin-coated Donor Beads (Perkin-Elmer cat. no. 6760002, final dilution 1:125) were added and this final mix was incubated in the dark for another 30 min at RT before RFU was measured in an AlphaScreen Reader (Perkin-Elmer Envision 2104). The value obtained for Aβ40 in the treated animals was related to the value in the vehicle group and is given in %. Alternatively a commercial ELISA was used for Aβ40 determination (Wako ELISA: (“Human/Rat β Amyloid (40) ELISA kit Wako II”; cat nr. 294-64701) following the manufacture's instruction. Also here the Aβ-lowering efficacy was calculated as percentage of the vehicle group.

T1 sequence (P56817 46-501): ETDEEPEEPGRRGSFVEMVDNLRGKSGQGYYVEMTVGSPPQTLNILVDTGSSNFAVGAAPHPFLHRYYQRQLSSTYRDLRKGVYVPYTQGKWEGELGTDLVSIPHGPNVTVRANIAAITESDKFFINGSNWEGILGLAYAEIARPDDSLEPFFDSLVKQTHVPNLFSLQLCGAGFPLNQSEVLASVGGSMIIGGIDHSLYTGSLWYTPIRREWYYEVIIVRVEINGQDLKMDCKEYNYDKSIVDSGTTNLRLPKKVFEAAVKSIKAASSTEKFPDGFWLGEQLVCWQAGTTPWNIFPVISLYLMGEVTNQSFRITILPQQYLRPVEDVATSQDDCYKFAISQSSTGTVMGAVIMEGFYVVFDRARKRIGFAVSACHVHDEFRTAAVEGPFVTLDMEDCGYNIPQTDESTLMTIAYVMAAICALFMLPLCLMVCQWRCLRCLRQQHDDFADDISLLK

Compound | IC50 [1] | Aβ40 (wt mice, brain) ([2]; 30 mg/kg) | Aβ40 (wt mice, brain) [2]
Cc1cc(C#N)cnc1C(=O)Nc1ccc(F)c(C2(C)CS3(=O)=NCCCC3(C)C(N)=N2)n1 (single isomer, unassigned) [Example 10] | 2.9 nM | 89% | –
Cc1cc(C#N)cnc1C(=O)Nc1ccc(F)c(C2(CF)CS3(=O)=NCCCC3(C)C(N)=N2)n1 (single isomer, unassigned) [Example 6] | 218 nM | – | –
Cc1cc(C#N)cnc1C(=O)Nc1ccc(F)c(C2(C)CS3(=O)=NCCCC3(C)C(N)=N2)n1 (single isomer, unassigned) [Example 1, N-[6-(5-amino-4a,7-dimethyl-9-oxido-2,3,4,4a,7,8-hexahydro-9λ^4-[1,4]thiazino[2,1-f][1,2]thiazin-7-yl)-5-fluoropyridin-2-yl]-5-cyano-3-methylpyridine-2-carboxamide] | 0.2 nM | 62% | –
Cc1cc(C#N)cnc1C(=O)Nc1ccc(F)c(C2(C)CS3(=O)=NCCCCC3(C)C(N)=N2)n1 (single isomer, unassigned) [Example 2, N-[6-(6-amino-5a,8-dimethyl-10-oxido-3,4,5,5a,8,9-hexahydro-2H-10λ^4-[1,4]thiazino[2,1-g][1,2]thiazepin-8-yl)-5-fluoropyridin-2-yl]-5-cyano-3-methylpyridine-2-carboxamide] | 0.2 nM | 48% | –
CC1(c2nc(NC(=O)c3ccc(OCC(F)(F)C(F)F)cn3)ccc2F)CS2(=O)=NCCCC2(C)C(N)=N1 (single isomer, unassigned) [Example 12] | 320 nM | – | 77%
Cc1cc(C#N)cnc1C(=O)Nc1ccc(F)c(C2(CF)CS3(=O)=NCCCC3(C)C(N)=N2)n1 (single isomer, unassigned) [Example 5] | 0.8 nM | 88% | –
CC1(c2nc(NC(=O)c3ncc(C#N)cc3Cl)ccc2F)CS2(=O)=NCCCC2(C)C(N)=N1 (single isomer, unassigned) [Example 11] | 2.3 nM | – | 90%
Cc1cc(C#N)cnc1C(=O)Nc1ccc(F)c(C2(CF)CS3(=O)=NCCCC3(C)C(N)=N2)n1 (single isomer, unassigned) [Example 9] | 98 nM | 113% | –
CC12CCCN=S1(=O)CC(CF)(c1nc(NC(=O)c3ccc(OCC(F)(F)C(F)F)cn3)ccc1F)N=C2N (single isomer, unassigned) [Example 7] | 46 nM | – | –
Cc1cc(C#N)cnc1C(=O)Nc1ccc(F)c(C2(CF)CS3(=O)=NCCCC3(C)C(N)=N2)n1 (single isomer, unassigned) [Example 8] | > 200 nM | – | –
Cc1cc(C#N)cnc1C(=O)Nc1ccc(F)c(C2(C)CS3(=O)=NCCCCC3(C)C(N)=N2)n1 (single isomer, unassigned) [Example 3, N-[6-(6-amino-5a,8-dimethyl-10-oxido-3,4,5,5a,8,9-hexahydro-2H-10λ^4-[1,4]thiazino[2,1-g][1,2]thiazepin-8-yl)-5-fluoropyridin-2-yl]-5-cyano-3-methylpyridine-2-carboxamide] | 13.8 nM | 95% | –
Cc1cc(C#N)cnc1C(=O)Nc1ccc(F)c(C2(C)CS3(=O)=NCCCCC3(C)C(N)=N2)n1 (single isomer, unassigned) [Example 4, N-[6-(6-amino-5a,8-dimethyl-10-oxido-3,4,5,5a,8,9-hexahydro-2H-10λ^4-[1,4]thiazino[2,1-g][1,2]thiazepin-8-yl)-5-fluoropyridin-2-yl]-5-cyano-3-methylpyridine-2-carboxamide] | 0.4 nM | 83% | –

Source: patent US9920072B2, “BACE1 inhibitors” (Hoffmann-La Roche Inc., priority 2014, dated 2018)
